Assay results as given in patent US20070298444A1, “Methods and Compositions for Use in Evaluating and Treating Neoplastic Disease Conditions” (priority 2004, published 2007).

Columns and labels:
Assay type in all cases: cell-based, human
HBEC [1] = assay: Paclitaxel treatment of HBEC, immunofluorescence microscopy
Description: (§1) HBEC were grown to 70% confluency on 1 well-chambered coverglass (Lab-Tek II, Nunc, #1.5). For all experiments except the localization of LTB4DH and Hs.516830 to the centriole in D51 cells, which required a stringent wash prior to fixation, standard fixation conditions were used. For standard conditions, culture media was removed and the cells were fixed directly in PBS containing 3% formaldehyde for 20 minutes. For stringent conditions, cells were rinsed quickly in PHEM buffer (60 mM Pipes, 25 mM Hepes, 10 mM EGTA, 1 mM Mg-acetate, pH 6.9), lysed for 2 minutes in PHEM containing 0.5% Triton X100, and fixed in PHEM containing 3% formaldehyde for 20 minutes. All steps subsequent to cell fixation were identical. Cells were incubated with PBS containing 50 mM NH4Cl for 10 minutes, permeabilized in PBS containing 0.1% Triton X-100 at RT for 3 minutes, and blocked one hour in block buffer (PBS containing 0.75% BSA [GIBCO]). Primary antisera was diluted in block buffer to a final concentration of 1-10 ug/ml, depending on the antibody, and incubated with cells for 1.5 hours at room temperature. Conjugated secondary antibodies (diluted in block buffer to 2 ug/ml) were incubated for 45 minutes at room temperature. Phalloidin conjugated to rhodamine (Molecular Probes, 1 unit/ml final) was included during secondary antibody incubation where indicated in the figure legend. DNA was stained with 300 nM DAPI (Molecular Probes) in PBS for 5 minutes, and the cells were mounted in Prolong Antifade (Molecular Probes). Wide-field fluorescence microscopy (DeltaVision, Applied Precision) and subsequent deconvolution was used for all images that dealt with fixed cells. A 0.2-micron z-plane was used throughout. Three-dimensional rendering of stacked images was done on Volocity 2.0 software (Improvision).
(§2) Primary cell cultures of human bronchial epithelial cells (HBEC) were purchased commercially (Cambrex, no retinoic acid) from two male donors and grown in BEGM medium (Cambrex) according to specifications. […]

[2] = test system: MCF10A breast epithelial cells; assay: Paclitaxel treatment of MCF10A, immunofluorescence microscopy; conditions: 1 uM paclitaxel, 9 hours
HBEC [3] = assay: Nocodazole treatment and recovery of HBEC, immunofluorescence microscopy
Description: as §1, §2

CC(=O)O[C@H]1C(=O)[C@@]2(C)[C@H]([C@H](OC(=O)c3ccccc3)[C@]3(O)C[C@H](OC(=O)[C@H](O)[C@@H](NC(=O)c4ccccc4)c4ccccc4)C(C)=C1C3(C)C)[C@]1(OC(C)=O)CO[C@@H]1C[C@@H]2O [paclitaxel]
formation of ribbon-like structure (HBEC [1]; HBEC treated with paclitaxel versus absence of paclitaxel, antisera to OKL38, LTB4DH, RLA1, TRIM29): promotes the formation of a ribbon-like structure in close proximity to mitotic DNA
increase in the number of mitotic figures (HBEC [1]; HBEC, 1 uM paclitaxel, 9 hours, DAPI stain of fixed cells): 10 fold
mitotic spindle integrity based on microtubule localization (HBEC [1]; HBEC, 1 uM paclitaxel, 9 hours, alpha-tubulin immunofluorescence): no indication of an intact mitotic spindle in any cell
localization of ribbon-like structure [2]: localization of a ribbon-like structure in the vicinity of condensed, mitotic DNA

COC(=O)Nc1nc2ccc(C(=O)c3cccs3)cc2[nH]1 [nocodazole]
presence of ribbon-like structure (HBEC [3]; nocodazole 20 minute exposure): uncharacteristically absent
effect on cytoplasmic microtubules (HBEC [3]; nocodazole 20 minute exposure, alpha-tubulin antisera): sufficient to eliminate cytoplasmic MT
effect on actin fibers (HBEC [3]; nocodazole treatment then 20 minute recovery, phalloidin-rhodamine): unaffected
